# From patent US8722910B2, “Diyne compositions” (Evolva AG, priority 2009, dated 2014)
# “And” between values parts separate entries of the source, which are not always exact repeats. Equal entries are not always repeated.
# How the values were obtained:
# [1] = system: Trichophyton mentagrophytes; assay: Guinea pig skin infection, topical dosing; type: in vivo; settings: guinea pigs
# Description: The efficacy of compound III″ in skin infections of small mammals was shown in guinea pigs infected with Trichophyton mentagrophytes on abrased skin. Compound III″ was administered topically at 0.1% or 1% once daily for seven days. Fungal burden decreased by 82% and 98% respectively, compared to the untreated control (see FIG. 13 showing topical fungal burden as determined by culture positive hair removed from the site of infection).
# M. gypseum = assay: In vitro antifungal activity vs. dermatophytes (MIC/MFC); type: cell-based; settings: M. gypseum (n = 1)
# C. guilliermondii = assay: In vitro antifungal activity vs. yeasts (MIC/MFC); type: cell-based; settings: Meyerozyma guilliermondii, C. guilliermondii (n = 1)
# all dermatophyte strains = assay: MIC and MFC range over all dermatophyte strains tested; type: cell-based, dermatophytes; settings: Table 14 strains
# Chitin Synthase = assay: Inhibition of fungal cell wall synthesis enzymes; type: biochemical
# Source text: (§1) Specific inhibitors of each enzyme served as positive controls (Cilofungin, a β-glucan synthase inhibitor and nikkomycin Z, a chitin synthase inhibitor).
# (1,3)β-Glucan Synthase = assay: Inhibition of fungal cell wall synthesis enzymes; type: biochemical
# Source text: as §1
# [2] = In vitro Mammalian Cell Cytotoxicity; type: cell-based; settings: human, HFF cells
# C. albicans [3] = assay: Mice infected systemically with C. albicans, oral dosing, kidney burden; type: in vivo; settings: orally twice daily for 3 days, vs untreated
# Description: Mice were infected systemically with C. albicans. Compound IV″ was administered orally twice daily for 3 days at 5 mg/kg or 10 mg/kg per dose. Kidney fungal burden decreased by 88% and 94% respectively, compared to the untreated control (as shown in FIG. 12 showing kidney fungal burden as determined by colony forming units (CFU) per gram of homogenised tissue).
# S. cerevisiae = assay: Doubling times of S. cerevisiae; type: cell-based
# Description: S. cerevisiae was cultured in the presence of 1 and 10 μg/ml of the potassium salt, 10 μg/ml oleic acid and 1 μg/ml of the potassium salt combined with 10 μg/ml oleic acid.
# When S. cerevisiae was cultured in the presence of 1 and 10 μg/ml compound IV″, the doubling times increased to 2.4 h and 4.2 h, respectively, compared to 2 h for the untreated control. The addition of 10 μg/ml oleic acid, sodium salt, to 1 μg/ml compound IV″ reversed the doubling time to 2 h as observed for the untreated control or 10 μg/ml oleic acid, sodium salt alone.
# C. tropicalis = assay: Susceptibility of clinical isolates (MIC, broth dilution); type: cell-based
# Description: (§2) The efficacy of compound IV″ was investigated on 563 clinical isolates of 33 human fungal pathogens. […] For species with n≧10, the MIC90 (MIC, minimal inhibitory concentration) is given as ng/ml. For species with n≦10, the MIC range is given as ng/ml. 24 h and 48 h reads are indicated (Table 1).
# (§3) The in vitro efficacy of antifungal compounds is determined in susceptibility assays, which are indicative for the spectrum and potency of a compound. Susceptibilities are reported as minimal inhibitory concentrations (MIC, as ng/ml or μg/ml) required to inhibit growth to a defined degree compared to the drug free control. The MIC90 defines the MIC required to inhibit growth for ≧90% of the strains of a population tested.
# (§4) The MIC90 was calculated for the indicated species.
# C. albicans [4] = assay: as above; type: cell-based
# Description: as §2, §3, §4
# C. lusitaniae = assay: as above; type: cell-based
# Description: as §2, §3, §4
# C. krusei = assay: as above; type: cell-based
# Description: as §2, §3, §4
# C. dubliniensis = assay: as above; type: cell-based
# Description: as §2, §3, §4
# C. parapsilosis = assay: as above; type: cell-based
# Description: as §2, §3, §4
# C. glabrata = assay: as above; type: cell-based
# Description: as §2, §3, §4
# Cytochrome P450 2C19 = Cytochrome P450 2C19 (Homo sapiens, UniProt P33261); assay: Inhibition of cytochrome P450 enzymes; type: in vitro ADME; settings: substrate omeprazole
# Description: Peak areas corresponding to the metabolite of each substrate were recorded. The percent of control activity was then calculated by comparing the peak area obtained in the presence of the diyne potassium salt and in the absence.
# Candida albicans = assay: Growth inhibition alone and combined with Amphotericin B (visual); type: cell-based; settings: 2 μg/ml and lower
# Description: (§5) Potassium (Z)-14-(furan-2-yl)tetradeca-9-en-11,13-diynoate was tested against Aspergillus fumigatus and various Candida species alone to determine antifungal activity and in various combinations with Amphotericin B to determine if any synergistic or antagonistic interactions may occur.
# (§6) Amphotericin B and potassium (Z)-14-(furan-2-yl)tetradeca-9-en-11,13-diynoate were added to an in vitro culture of different fungi in various concentrations and the culture was visually inspected. If there is inhibition of growth the culture will remain optically clear, whereas growth results in a hazy culture. The results are shown in FIG. 5, where 0 means optically clear (i.e. no growth), 1 means slightly hazy, 2 means prominent decrease (at least 50%) in visible growth, 3 means slight reduction in visible growth and 4 means no reduction in visible growth.
# Candida glabrata = assay: as above; type: cell-based
# Description: as §5, §6
# Candida parapsilosis = assay: as above; type: cell-based; settings: 2 μg/ml and lower
# Description: as §5, §6
# Aspergillus fumigatus = assay: as above; type: cell-based
# Description: as §5, §6
# Chain of Cytochrome P450 2C19 (P33261 whole entry): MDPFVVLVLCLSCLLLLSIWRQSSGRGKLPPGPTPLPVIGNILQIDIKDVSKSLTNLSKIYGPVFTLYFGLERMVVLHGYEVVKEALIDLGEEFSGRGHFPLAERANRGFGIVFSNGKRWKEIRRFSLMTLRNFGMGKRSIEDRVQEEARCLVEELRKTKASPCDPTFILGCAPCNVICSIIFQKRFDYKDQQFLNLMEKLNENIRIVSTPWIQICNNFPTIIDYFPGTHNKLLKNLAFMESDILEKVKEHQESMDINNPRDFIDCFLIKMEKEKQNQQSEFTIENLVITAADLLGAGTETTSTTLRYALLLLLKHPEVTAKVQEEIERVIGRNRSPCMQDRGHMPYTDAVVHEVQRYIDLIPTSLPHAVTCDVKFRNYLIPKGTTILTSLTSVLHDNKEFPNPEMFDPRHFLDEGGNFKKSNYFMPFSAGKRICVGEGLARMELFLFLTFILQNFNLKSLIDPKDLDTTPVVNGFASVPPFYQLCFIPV
smiles,measurement,setting,value
O=C(O)CCCCCCC/C=C\C#CC#Cc1ccco1 [Compound III″],decrease of fungal burden (culture positive hair),[1]; topically 0.1% once daily for seven days,82%
same,decrease of fungal burden (culture positive hair),[1]; topically 1% once daily for seven days,98%
same,MIC90/MIC range 48 h,M. gypseum; 48 h,<0.06 ng/mL
same,MIC,"M. gypseum; Nannizzia gypsea, 96 h, 35° C., 4 days",< 0.06 ng/mL
same,MFC,M. gypseum; Nannizzia gypsea,16000 ng/mL
same,MFC,C. guilliermondii,0.5 ng/mL
same,MIC,C. guilliermondii; 90% inhibition endpoint,< 0.06 ng/mL
same,MFC range against dermatophytes,all dermatophyte strains,<0.06 to 16000 ng/mL
same,MIC range against all dermatophyte strains,all dermatophyte strains,<0.06 to 1000 ng/mL
same,"% Inhibition, Chitin Synthase",Chitin Synthase; 10 μg/ml,16%
same,"% Inhibition, Chitin Synthase",Chitin Synthase; 100 μg/ml,85%
same,"% Inhibition, Chitin Synthase",Chitin Synthase; 500 μg/ml,97%
same,concentrations at which the enzymes were inhibited,Chitin Synthase; chitin synthase and β-glucan synthase,> 100 µg/mL
same,"% Inhibition, (1,3)β-Glucan Synthase","(1,3)β-Glucan Synthase; 10 μg/ml",0%
same,"% Inhibition, (1,3)β-Glucan Synthase","(1,3)β-Glucan Synthase; 100 μg/ml",73%
same,"% Inhibition, (1,3)β-Glucan Synthase","(1,3)β-Glucan Synthase; 400 μg/ml",90%
same,CC50,[2],75000 ng/mL
"O=C([O-])CCCCCCC/C=C\C#CC#Cc1ccco1.[K+] [Compound IV″, potassium (Z)-14-(furan-2-yl)tetradeca-9-en-11,13-diynoate]",decrease of kidney fungal burden,C. albicans [3]; 5 mg/kg per dose,88%
same,decrease of kidney fungal burden,C. albicans [3]; 10 mg/kg per dose,94%
same,Doubling time,S. cerevisiae; 1 μg/ml,2.4 h
same,Doubling time,S. cerevisiae; 1 μg/ml combined with 10 μg/ml oleic acid,2 h and 2.1 h
same,Doubling time,S. cerevisiae; 10 μg/ml,4.2 h
same,MIC90/MIC range 48 h,"C. tropicalis; C. tropicalis (n = 35), MIC90, 48 h",5 ng/mL
same,MIC90,"C. tropicalis; Candida tropicalis, 24 h",5 ng/mL
same,MIC90/MIC range 48 h,"C. albicans [4]; C. albicans (n = 20), MIC90, 48 h",2.5 ng/mL
same,MIC90,"C. albicans [4]; Candida albicans, 24 h",2.5 ng/mL
same,MIC90/MIC range 48 h,"C. lusitaniae; C. lusitaniae (n = 24), MIC90, 48 h",128 ng/mL
same,MIC90,"C. lusitaniae; Clavispora lusitaniae, 24 h",128 ng/mL
same,MIC90/MIC range 48 h,"C. krusei; C. krusei (n = 27), MIC90, 48 h",20 ng/mL
same,MIC90,"C. krusei; Pichia kudriavzevii, 24 h",20 ng/mL
same,MIC90/MIC range 48 h,"C. dubliniensis; C. dubliniensis (n = 25), MIC90, 48 h",2.5 ng/mL
same,MIC90,"C. dubliniensis; Candida dubliniensis, 24 h",2.5 ng/mL
same,MIC90/MIC range 48 h,"C. parapsilosis; C. parapsilosis (n = 37), MIC90, 48 h",1024 ng/mL
same,MIC90,"C. parapsilosis; Lodderomyces parapsilosis, 24 h",1020 ng/mL
same,MIC50,"C. parapsilosis; Lodderomyces parapsilosis, 24 h, read-out: calculated MIC50",128 ng/mL
same,MIC90/MIC range 48 h,"C. glabrata; C. glabrata (n = 25), MIC90, 48 h",20 ng/mL
same,MIC90,"C. glabrata; Nakaseomyces glabratus, 24 h",20 ng/mL
same,IC50,Cytochrome P450 2C19,32 µM
same,% control at 10 μM,Cytochrome P450 2C19; 10 μM,84%
same,inhibition of growth,Candida albicans,clearly inhibits growth
same,interaction with Amphotericin B,Candida glabrata,Synergism was observed
same,inhibition of growth,Candida glabrata; 2 μg/ml and lower,clearly inhibits growth
same,inhibition of growth by the combination,Candida glabrata; AmphothericinB/potassium salt 250/2.5 ng/ml or 125/10 ng/ml,clearly inhibit growth
same,inhibition of growth,Candida parapsilosis,clearly inhibits growth
same,interaction with Amphotericin B,Aspergillus fumigatus,Synergism was observed
